Experimental findings from DBAASP are described below.

SMILES strings stand for the structures. Converted amounts (≈) assume the structure as drawn.

What all share (assay): ≥ marks a high value that may be exact or a test limit, other limits are often not marked, values filed in µg/mL are converted to µM
The test system of test [1] is Enterococcus faecium CGMCC 1.2334.
Test [2] has as its system Pseudomonas aeruginosa CGMCC 1.860.
The test system of test [3] is Proteus mirabilis CICC 22931.
Test [4] deals with Staphylococcus aureus AS1.72.
In test [5] the test system is Pseudomonas aeruginosa 0108.
Test [6] relates to Staphylococcus epidermidis.
Test [7] has as its system Enterobacter cloacae CGMCC 1.58.
The subject of test [8] is Staphylococcus epidermidis CICC 23664.
Test [9] relates to Bacillus cereus AS1.126.
In test [10] the test system is Escherichia coli AS1.349.
The test system of test [11] is Enterococcus faecalis CGMCC 1.595.
The test system of test [12] is Klebsiella pneumoniae subsp. pneumoniae CGMCC 1.176.
Test [13] has as its system Klebsiella pneumoniae ATCC 13883.
Test [14] relates to Bacillus subtilis.
Test [15] has as its system Enterococcus faecalis ATCC 29212.
The subject of test [16] is Escherichia coli.
In test [17] the test system is Pseudomonas aeruginosa ATCC 27853.
Test [18] concerns Streptococcus pyogenes ATCC 19615.
The subject of test [19] is Salmonella enterica subsp. enterica serovar Typhimurium ATCC 14028.
In test [20] the test system is Staphylococcus aureus ATCC 25923.
Test [21] deals with Streptococcus pneumoniae BCRC 10794.
The subject of test [22] is Staphylococcus aureus BCRC 10780.
Test [23] has as its system Micrococcus luteus ATCC 49732.
Test [24] deals with Staphylococcus saprophyticus ATCC 15305.
The subject of test [25] is Serratia sp. ATCC 39006.
Test [26] relates to Klebsiella pneumoniae ATCC 700603.
Test [27] relates to Neisseria gonorrhoeae ATCC 49226.
Test [28] deals with Staphylococcus aureus ATCC 43330.
Test [29] deals with Streptococcus agalactiae ATCC 12386.
Test [30] has as its system Escherichia coli ATCC 25922.
Test [31] deals with Proteus vulgaris ATCC 49132.
In test [32] the test system is Shigella sonnei ATCC 25931.
For test [33], the system named is Staphylococcus epidermidis ATCC 12228.
In test [34] the test system is Pseudomonas aeruginosa LCGE.
Test [35] relates to Staphylococcus aureus ATCC 29213.
In test [36] the test system is Pseudomonas aeruginosa LCCI.
Test [37] relates to Pseudomonas aeruginosa ATCC 21630.
Test [38] concerns Salmonella enterica subsp. enterica serovar Typhimurium C77-31.
Test [39] concerns Pseudomonas aeruginosa LCCE.
For test [40], the system named is Pseudomonas aeruginosa LC.
The subject of test [41] is Escherichia coli UB1005.
The test system of test [42] is Pseudomonas aeruginosa ATCC 21625.
For test [43], the system named is Pseudomonas aeruginosa ATCC 10419.
The test system of test [44] is Staphylococcus aureus ATCC 25023.

`CC[C@H](C)[C@H](N)C(=O)N[C@@H](CCCCN)C(=O)N[C@@H](CCCCN)C(=O)N[C@@H](Cc1c[nH]c2ccccc12)C(=O)N[C@@H](Cc1c[nH]c2ccccc12)C(=O)N[C@@H](CO)C(=O)N[C@@H](CCCCN)C(=O)N[C@H](C(=O)N[C@@H](CCCCN)C(=O)N[C@@H](CCCCN)C(=O)N[C@@H](CC(C)C)C(=O)N[C@@H](CC(C)C)C(=O)N[C@@H](CCCCN)C(N)=O)[C@@H](C)CC` [IKKWWSKIKKLLK]: the MIC in test [1] came out at 1.56 µM (≈ 2.65 µg/mL); in test [2], 3.13 µM (≈ 5.32 µg/mL); in test [3], 6.25 µM (≈ 10.6 µg/mL); in test [4] it was 1.56 µM (≈ 2.65 µg/mL); in [5], 12.5 µM (≈ 21.2 µg/mL); in [6], 3.12 µM (≈ 5.3 µg/mL). For the same molecule, the MIC in test [7] is 0.78 µM (≈ 1.32 µg/mL); in test [8], 1.56 µM (≈ 2.65 µg/mL); in test [9] it was 3.13 µM (≈ 5.32 µg/mL); in test [10] it was 3.13 µM (≈ 5.32 µg/mL); in test [11], 0.78 µM (≈ 1.32 µg/mL); in test [12], 25 µM (≈ 42.5 µg/mL).
Take `CC[C@H](C)[C@H](NC(=O)[C@@H]1CCCN1C(=O)[C@H](CC(C)C)NC(=O)[C@@H](N)CC(C)C)C(=O)N[C@H](C(=O)NCC(=O)N[C@@H](CC(N)=O)C(=O)N[C@@H](CC(C)C)C(=O)N[C@@H](CC(C)C)C(=O)N[C@@H](CCCCN)C(=O)N[C@@H](CO)C(=O)N[C@@H](CC(C)C)C(=O)N[C@@H](CC(C)C)C(=O)NCC(=O)N[C@@H](Cc1c[nH]c2ccccc12)C(=O)N[C@@H](CCCCN)C(=O)N[C@@H](CCCN=C(N)N)C(=O)N[C@@H](CCCCN)C(=O)N[C@@H](C)C(=O)N[C@@H](Cc1ccccc1)C(=O)NCC(N)=O)C(C)C` [LLPIVGNLLKSLLGWKRKAFG]: the MIC is at least 200 µM in [13]; at least 50 µM in [14]; 100 µM (≈ 232 µg/mL) in [15]; 100 µM (≈ 232 µg/mL) in [16]; 200 µM (≈ 465 µg/mL) in test [17]; at least 100 µM in [18]. In addition, the MIC was over 200 µM in test [19] and 50 µM (≈ 116 µg/mL) in test [20].
For the molecule `CC[C@H](C)[C@H](NC(=O)[C@H](CCSC)NC(C)=O)C(=O)N[C@@H](Cc1cnc[nH]1)C(=O)NCC(=O)N[C@@H](CC(C)C)C(=O)N[C@H](C(=O)N[C@H](C(=O)N[C@@H](CCCN=C(N)N)C(=O)N[C@@H](CCCN=C(N)N)C(N)=O)[C@@H](C)O)C(C)C` [MIHGLVTRR], the MIC in test [21] and in test [22] was at least 92.4 µM throughout.
Take `CC[C@H](C)[C@H](NC(=O)[C@H](CCCCN)NC(=O)[C@H](CCCN=C(N)N)NC(=O)[C@H](CC(C)C)NC(=O)[C@H](Cc1ccccc1)NC(=O)[C@H](CCCN=C(N)N)NC(=O)CNC(=O)[C@H](Cc1ccccc1)NC(=O)[C@@H](N)CCCN=C(N)N)C(=O)N[C@@H](CCCN=C(N)N)C(=O)N[C@@H](CCCN=C(N)N)C(=O)N[C@@H](Cc1ccccc1)C(=O)N[C@@H](CCCN=C(N)N)C(=O)N1CCC[C@H]1C(=O)N[C@@H](CCCCN)C(=O)N[C@H](C(=O)N[C@H](C(=O)N[C@H](C(=O)N[C@H](C(=O)N[C@H](C(=O)N[C@@H](CCC(N)=O)C(=O)NCC(=O)N[C@@H](CO)C(=O)N[C@@H](C)C(=O)N[C@@H](CCCN=C(N)N)C(=O)N[C@@H](Cc1ccccc1)C(N)=O)[C@@H](C)CC)[C@@H](C)O)[C@@H](C)CC)[C@@H](C)O)C(C)C` [RFGRFLRKIRRFRPKVTITIQGSARF]: the MIC in test [23] came to 0.814 µM (≈ 2.61 µg/mL); in [24], 0.976 µM (≈ 3.13 µg/mL); in [15], 2.25 µM (≈ 7.21 µg/mL); in [25] it was 3.9 µM (≈ 12.5 µg/mL); in test [26], 4.55 µM (≈ 14.6 µg/mL); in test [27], 5.2 µM (≈ 16.7 µg/mL). In addition, the MIC in test [28] turned out to be 2.6 µM (≈ 8.33 µg/mL); in test [29] it was 2.6 µM (≈ 8.33 µg/mL); in test [30] it was 1.62 µM (≈ 5.21 µg/mL); in [19], 2.25 µM (≈ 7.21 µg/mL); in test [31] it was 3.25 µM (≈ 10.4 µg/mL); in [32] it was 3.9 µM (≈ 12.5 µg/mL). The values for the MIC in [20] and in test [33] were 2.25 µM (≈ 7.21 µg/mL) and 2.92 µM (≈ 9.37 µg/mL), respectively.
Turning to `CC[C@H](C)[C@H](NC(=O)[C@H](CCCCN)NC(=O)[C@H](CCCCN)NC(=O)[C@H](CC(C)C)NC(=O)[C@H](CCCN=C(N)N)NC(=O)[C@H](CCCCN)NC(=O)[C@H](CCCN=C(N)N)NC(=O)[C@@H](NC(=O)[C@H](CCCCN)NC(=O)[C@H](CCCCN)NC(=O)[C@H](CCCN=C(N)N)NC(=O)[C@H](CC(C)C)NC(=O)[C@H](CCCN=C(N)N)NC(=O)[C@H](CCCN=C(N)N)NC(=O)[C@H](Cc1ccccc1)NC(=O)[C@@H](N)CCCN=C(N)N)[C@@H](C)O)C(N)=O` [RFRRLRKKTRKRLKKI], the MIC in [34] was at least 256 µM; in test [35] it was 128 µM (≈ 279 µg/mL); in [36], at least 256 µM; in test [15] it was 128 µM (≈ 279 µg/mL); in [37], at least 256 µM; in [17] it was 256 µM (≈ 559 µg/mL). For the same molecule, the MIC in [38] is at least 128 µM; in [39], at least 256 µM; in test [40], at least 32 µM; in test [30], 128 µM (≈ 279 µg/mL); in test [41], at least 128 µM; in test [42] it was at least 256 µM. For the same molecule, the MIC in [43] is at least 256 µM; in test [33], 32 µM (≈ 69.8 µg/mL).
As for `CC(C)C[C@H](NC(=O)[C@H](CCCN=C(N)N)NC(=O)[C@H](CC(C)C)NC(=O)[C@H](CC(C)C)NC(=O)[C@H](CC(C)C)NC(=O)[C@H](CC(C)C)NC(=O)[C@H](CC(C)C)NC(=O)[C@H](CCCCN)NC(=O)[C@H](CC(C)C)NC(=O)[C@@H](N)CCCN=C(N)N)C(N)=O` [RLKLLLLLRL], the MIC in test [44] is 6.4 µM (≈ 7.99 µg/mL).

One may read the MIC as the smallest concentration in the dilution series that meets the test's criterion for growth inhibition. Low readings indicate greater potency, high ones weaker potency.
